Legend:
human NLRP3 [1] = molecular target: T1, human NLRP3 (Homo sapiens, UniProt Q96P20); assay: Human Whole Blood (hWB) NLRP3 Assay (IL-1β MSD); format: cell-based; conditions: LPS 1 μg/ml 4.5 h, ATP 30 min, class symbols
Protocol: Human whole blood was drawn from healthy volunteers after obtaining written informed consent. Heparin lithium coated tubes were used to collect blood from volunteers. Blood samples were distributed on 96 well plates using 90 μl per well. Priming was performed by adding 5 μl of LPS (O26:B6; Sigma L-2654) at a final concentration of 1 μg/ml for 4.5 hours in a humidified incubator with 37° C., 5% CO2. Thirty minutes prior to NLRP3 activation, 5 μl of a 20× compound solution or vehicle (2% DMSO) was added to each well and plates were incubated on a shaker (450 rpm) in a humidified incubator with 37° C., 5% CO2. Activation was then performed by adding 3.3 μl of a 31× ATP solution per well. At the end of the 30 minutes stimulation, the plates were centrifuged (800 g, 10 min, room temperature) and the plasma from each well was frozen at −80° C. IL-1β levels in the supernatant were analyzed using a mesoscale discovery assay (MSD K151TUK) according to the manufacturers' instructions.
hWB IL-1β Assay: A represents an IC50 value <0.3 μM; B represents an IC50 value ≥0.3 μM and <0.5 μM; C represents an IC50 value ≥0.5 μM and <1.0 μM; D represents an IC50 value >1.0 μM.

human NLRP3 [2] = molecular target: T1, human NLRP3; assay: Human PBMC NLRP3 Assay (IL-1β release); format: cell-based; set-up: Human PBMCs (Normal): iXCells Cat #10HU-003; host or cells: human PBMCs (normal donors), LPS-primed, nigericin-stimulated; conditions: human PBMCs, LPS priming 4 h, nigericin stimulation 1 h; class symbols
Protocol: Reagents: Human PBMCs (Normal): iXCells Cat #10HU-003; RPMI 1640 medium (ATCC modification): ThermoFisher Cat #A1049101 (Complete Media: 10% FBS, 1% Pen/Strep; Assay Media: 1% Pen/Strep; 75 cm^2 cell culture flask: Corning Cat #430641U; 96-well cell culture plates: VWR Cat #10062-900; LPS (E. coli 026:B6): Sigma Cat #L2654, stock 5 mg/mL in PBS; Nigericin sodium salt: Sigma Cat #N7143, stock 5 mg/mL (6.7 mM) in ethanol.
Cryopreserved PBMCs (10×10^6 cells/vial) were rapidly thawed in a 37° C. water bath for 2 min and transferred in 10 mL Complete Media. Cells were then centrifuged at 1200 RPM for 5 min, resuspended in 40 mL of Complete Media, transferred in a 75 cm^2 cell culture flask and incubated overnight at 37° C. with 5% CO2. The next day, PBMCs were centrifuged, resuspended in 30 mL Assay Media (˜3.3×10^5 cells/mL) and distributed at 100 μL/well in a 96-well cell culture plate. 50 μl of Assay Media containing 300 ng/ml of LPS was then added to each well except for the untreated control wells (50 μl Assay Media without LPS). Cells were then primed with LPS for 4 h at 37° C. with 5% CO2. A concentration response curve (CRC) was prepared of 500× test compound in 100% dimethyl sulfoxide (DMSO). The CRC was then diluted 1:25 in Assay Media and then further diluted 1:5 in Assay Media resulting in a final 4× CRC in 0.8% DMSO/Assay Media. 50 μL/well of 4× test compound CRC or vehicle (0.8% DMSO/Assay Media) was then transferred into each well and subsequently incubated for 30 min at 37° C. with 5% CO2. Cells were stimulated by adding 4 μL of 500 μM Nigericin, for 1 h at 37° C. with 5% CO2 Plates were then centrifuged at 1200 RPM for 5 min and 100 μl of the media was transferred to a clean 96-well storage plate and stored at −80° C. until analyzed. Cytokine measurements were performed using the mesoscale platform. Compounds were added 30 minutes before priming the cells with LPS when TNFα was required to be quantified in the cytokine panel to confirm selectivity.
Human PBMC NLRP3 Assay: A represents an IC50 value <0.3 μM; B represents an IC50 value ≥0.3 μM and <0.5 μM; C represents an IC50 value ≥0.5 μM and <1.0 μM; D represents an IC50 value >1.0 μM and <10 μM; E represents an IC50 value >10 μM.

T1 sequence (Q96P20 whole entry): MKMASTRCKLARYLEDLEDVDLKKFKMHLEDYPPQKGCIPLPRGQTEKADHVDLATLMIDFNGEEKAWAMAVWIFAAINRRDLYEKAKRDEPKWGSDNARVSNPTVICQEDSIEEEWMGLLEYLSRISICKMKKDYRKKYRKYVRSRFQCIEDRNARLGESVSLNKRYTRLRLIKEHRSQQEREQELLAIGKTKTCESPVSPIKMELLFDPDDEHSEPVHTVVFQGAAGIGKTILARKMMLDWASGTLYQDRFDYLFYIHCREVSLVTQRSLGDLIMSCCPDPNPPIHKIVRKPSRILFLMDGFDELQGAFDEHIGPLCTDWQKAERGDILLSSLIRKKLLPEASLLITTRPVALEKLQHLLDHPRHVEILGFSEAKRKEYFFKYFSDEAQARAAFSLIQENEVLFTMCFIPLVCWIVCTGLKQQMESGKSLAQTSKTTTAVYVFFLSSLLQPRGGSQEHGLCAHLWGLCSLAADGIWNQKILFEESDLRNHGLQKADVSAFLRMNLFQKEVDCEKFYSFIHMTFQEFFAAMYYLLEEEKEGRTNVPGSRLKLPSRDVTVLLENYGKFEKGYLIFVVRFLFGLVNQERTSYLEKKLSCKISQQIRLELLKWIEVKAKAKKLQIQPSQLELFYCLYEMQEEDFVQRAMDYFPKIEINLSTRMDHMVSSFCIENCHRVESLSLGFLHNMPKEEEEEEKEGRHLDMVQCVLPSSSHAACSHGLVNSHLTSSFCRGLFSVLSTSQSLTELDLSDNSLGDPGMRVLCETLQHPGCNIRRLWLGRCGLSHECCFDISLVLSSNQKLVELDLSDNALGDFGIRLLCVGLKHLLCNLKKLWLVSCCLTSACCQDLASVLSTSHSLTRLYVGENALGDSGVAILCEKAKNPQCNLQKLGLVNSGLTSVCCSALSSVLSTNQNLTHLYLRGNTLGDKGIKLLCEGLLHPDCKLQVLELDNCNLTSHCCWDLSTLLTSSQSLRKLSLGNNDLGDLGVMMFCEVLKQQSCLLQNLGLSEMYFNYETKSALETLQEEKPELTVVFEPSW

| SMILES | IC50 (human NLRP3 [1]) | IC50 (human NLRP3 [2]) |
| --- | --- | --- |
| CC1(C)C(=O)N(CC(=O)NCCCC(=O)O)c2ccc(Br)c(F)c21 [Compound 21, 4-(2-(5-bromo-4-fluoro-3,3-dimethyl-2-oxoindolin-1-yl)acetamido)butanoic acid] | < 300 nM | < 300 nM |
| CC1(C)C(=O)N(CC(=O)NCCCc2nnn[nH]2)c2c(O)cc(C3CC3)cc21 [Compound 29, N-(3-(1H-tetrazol-5-yl)propyl)-2-(5-cyclopropyl-7-hydroxy-3,3-dimethyl-2-oxoindolin-1-yl)acetamide] | > 1000 nM | – |
| CC(C)(CCC(=O)O)NC(=O)CN1C(=O)C(C)(C)c2cc(Br)cc(O)c21 [Compound 31, 4-(2-(5-bromo-7-hydroxy-3,3-dimethyl-2-oxoindolin-1-yl)acetamido)-4-methylpentanoic acid] | 500 to 1000 nM | < 300 nM |
| CC1(C)C(=O)N(CC(=O)NCCCc2nnn[nH]2)c2c(O)cc(Br)cc21 [Compound 33, N-(3-(1H-tetrazol-5-yl)propyl)-2-(5-bromo-7-hydroxy-3,3-dimethyl-2-oxoindolin-1-yl)acetamide] | > 1000 nM | < 300 nM |
| C[C@@H](CCC(=O)O)NC(=O)CN1C(=O)C(C)(C)c2cc(Br)cc(O)c21 [Compound 41B, (S)-4-(2-(5-bromo-7-hydroxy-3,3-dimethyl-2-oxoindolin-1-yl)acetamido)pentanoic acid] | > 1000 nM | < 300 nM |
| CC1(C)C(=O)N(CC(=O)NCCCC(=O)O)c2c(O)cc(Cl)cc21 [Compound 47, 4-(2-(5-chloro-7-hydroxy-3,3-dimethyl-2-oxoindolin-1-yl)acetamido)butanoic acid] | 300 to 500 nM | – |
| C[C@H](CNC(=O)CN1C(=O)C(C)(C)c2c(F)c(C3CC3)cc(F)c21)CC(=O)O [Compound 61B, (S)-4-(2-(5-cyclopropyl-4,7-difluoro-3,3-dimethyl-2-oxoindolin-1-yl)acetamido)-3-methylbutanoic acid] | 500 to 1000 nM | – |

Second part, the compound after the results:

| IC50 (human NLRP3 [1]) | IC50 (human NLRP3 [2]) | SMILES |
| --- | --- | --- |
| 500 to 1000 nM | < 300 nM | CC1(C)C(=O)N(CC(=O)NC2(CCC(=O)O)CCOC2)c2ccc(Br)cc21 (racemic) [Rac-3, 3-(3-(2-(5-bromo-3,3-dimethyl-2-oxoindolin-1-yl)acetamido)tetrahydrofuran-3-yl)propanoic acid] |
| 500 to 1000 nM | < 300 nM | C[C@@H](CC(=O)O)[C@@H](C)NC(=O)CN1C(=O)C(C)(C)c2c1ccc(C1CC1)c2F (single isomer, unassigned) [Compound 58A*] |
| > 1000 nM | – | CC1(C)C(=O)N(CC(=O)NCCCC(=O)O)c2ccc(Cl)cc21 [Compound 4, 4-(2-(5-chloro-3,3-dimethyl-2-oxoindolin-1-yl)acetamido)butanoic acid] |
| < 300 nM | < 300 nM | CC1(C)C(=O)N(CC(=O)NCCCC(=O)O)c2ccc(I)cc21 [Compound 22, 4-(2-(5-iodo-3,3-dimethyl-2-oxoindolin-1-yl)acetamido)butanoic acid] |
| > 1000 nM | < 300 nM | CC1(C)C(=O)N(CC(=O)NCCCC(=O)O)c2c(O)cc(I)cc21 [Compound 28, 4-(2-(7-hydroxy-5-iodo-3,3-dimethyl-2-oxoindolin-1-yl)acetamido)butanoic acid] |
| > 1000 nM | < 300 nM | CN(CCCC(=O)O)C(=O)CN1C(=O)C(C)(C)c2cc(Br)cc(O)c21 [Compound 30, 4-(2-(5-bromo-7-hydroxy-3,3-dimethyl-2-oxoindolin-1-yl)-N-methylacetamido)butanoic acid] |
| > 1000 nM | – | CC(C)(CCc1nnn[nH]1)NC(=O)CN1C(=O)C(C)(C)c2cc(Br)cc(O)c21 [Compound 32, 2-(5-bromo-7-hydroxy-3,3-dimethyl-2-oxoindolin-1-yl)-N-(2-methyl-4-(1H-tetrazol-5-yl)butan-2-yl)acetamide] |
| > 1000 nM | < 300 nM | CC1(C)C(=O)N(CC(=O)NCC2(CC(=O)O)CC2)c2c(O)cc(Br)cc21 [Compound 35, 2-(1-((2-(5-bromo-7-hydroxy-3,3-dimethyl-2-oxoindolin-1-yl)acetamido)methyl)cyclopropyl)acetic acid] |
